Reference: US20240342136A1, “Glutamate receptor agonists for suppression of mast cell function” (University of Pittsburgh - Of the Commonwealth System of …, priority 2023, published 2024)
Entries after “also recorded” stand apart in the source; their conditions may differ.

Key:
dermal mast cells = assay: Evans Blue dye edema after intradermal compound 48/80 in mice; assay type: in vivo, C57BL/6 mice; settings: compound 48/80 challenge, 20 minutes
Procedure: Cohorts of 7-9-week-old female C57BL/6 mice were given 20 ul intradermal flank injections of 1600 nM SYM2081 or control PBS twice a day for 2 days. Evans Blue dye was introduced by intravenous injection to allow for quantification of edema followed by intradermal injection of control PBS or compound 48/80 (20 ul 10 ug/ml). The amount of Evans blue dye released into the skin which quantifies edema and is an indirect measure of mast cell degranulation was measured 20 minutes later (FIG. 2A). […] The percentage of degranulated mast cells was also quantified by direct microscopic visualization of skin samples stained with toluidine blue (FIG. 2B). […] Mice were then challenged by application of 0.5% croton oil, an irritant, on 1 ear and the degree of ear swelling which is reflective of the extent of irritant dermatitis was measured (FIG. 2D). […]
Cohorts of 7-9-week-old female C57BL/6 mice were treated with 5.0% SYM2081 formulated into a light base or vehicle alone on the flank twice daily for 2 days. Evans Blue dye was introduced by intravenous injection to allow for quantification of edema followed by intradermal injection of control PBS or compound 48/80 (20 ul 10 ug/ml). The amount of Evans blue dye released into the skin which quantifies edema and is an indirect measure of mast cell degranulation was measured 20 minutes later (FIG. 3A). […]

contact hypersensitivity = assay: DNFB contact hypersensitivity, ear thickness; assay type: in vivo, mice; settings: topical SYM2081 on shaved abdomen twice daily for 2 days; 0.5% DNFB sensitization, 0.25% DNFB challenge; 7 days; FIG. 3B
[1] = system: murine peritoneal mast cells; assay: β-hexosaminidase release from mast cells; assay type: cell-based; settings: preincubated with SYM2081 at 100 nM and 1600 nM; FIG. 1F
[2] = system: mast cells in whole human skin explants; assay: Whole human skin explants, degranulated mast cells by toluidine blue after compound 48/80; assay type: cell-based; settings: 1600 nM for 48 hours; compound 48/80 240 ug/ml 20 minutes; FIG. 2C
Procedure: (§1) Cohorts of 7-9-week-old female C57BL/6 mice were given 20 ul intradermal flank injections of 1600 nM SYM2081 or control PBS twice a day for 2 days. Evans Blue dye was introduced by intravenous injection to allow for quantification of edema followed by intradermal injection of control PBS or compound 48/80 (20 ul 10 ug/ml). The amount of Evans blue dye released into the skin which quantifies edema and is an indirect measure of mast cell degranulation was measured 20 minutes later (FIG. 2A). […] The percentage of degranulated mast cells was also quantified by direct microscopic visualization of skin samples stained with toluidine blue (FIG. 2B). Whole human skin explants were cultured in control PBS or 1600 nM SYM2081 for 48 hours. Sample were exposed to compound 48/80 (240 ug/ml) for 20 minutes followed by direct microscopic visualization of skin samples stained with toluidine blue (FIG. 2C). […] Finally, C57BL/6 mice were treated with intradermal injection of control PBS or SYM2081 for 2 days as above. Mice were then challenged by application of 0.5% croton oil, an irritant, on 1 ear and the degree of ear swelling which is reflective of the extent of irritant dermatitis was measured (FIG. 2D). […] Each symbol represents data from an individual animal.

irritant dermatitis = assay: Croton oil-induced irritant dermatitis, ear swelling; assay type: in vivo, C57BL/6 mice; settings: intradermal SYM2081 for 2 days; 0.5% croton oil on 1 ear; FIG. 2D
Procedure: as §1

[3] = system: murine peritoneal mast cells; assay: Mast cell degranulation by flow cytometry (surface Lamp1 and avidin binding) after compound 48/80; assay type: cell-based; settings: for degranulation of PCMC in response to MrgprB2: in vitro, dose-dependent manner; for mast cell degranulation (mast cell activation): 48 hours incubation, compound 48/80 20 ug/ml 20 minutes, FIG. 1B
Procedure: Primary mast cell cultures derived from murine peritoneal mast cells were incubated for 48 hours with kainic acid (0.1, 1.0, 10 and 100 uM), glutamate (6 mM) or vehicle control. Cultures were then exposed to the synthetic MrgprB2 ligand, compound 48/80, at 20 ug/ml for 20 minutes. The extent of mast cell degranulation was determined based on surface expression of Lamp1 protein and avidin binding using flow cytometry gated on CD117+ FcεR+ mast cells. Representative flow plots from unstimulated cells (control) and cells stimulated with compound 48/80 are shown (FIG. 1A). […] A similar set of experiments were performed using mast cells incubated with the selective GluK2 agonist, SYM2081 at 1600 nM concentration (FIGS. 1C and 1D). […] Each symbol represents data from a single well of mast cells.

Row | Compound | edema (Evans blue dye released into the skin), indirect measure of mast cell degranulation (dermal mast cells; 20 ul intradermal 1600 nM SYM2081 twice a day for 2 days, FIG. 2A) | edema (Evans blue dye released into the skin), indirect measure of mast cell degranulation (dermal mast cells; topical 5.0% SYM2081 in a light base on flank twice daily for 2 days, FIG. 3A) | increased ear thickness (inflammation) in response to DNFB (contact hypersensitivity) | release of β-hexosaminidase [1] | percentage of degranulated mast cells [2] | ear swelling (irritant dermatitis) (irritant dermatitis) | effective concentration (suppression of mast cells) ([3]; FIG. 1E) | IC50 ([3]; Mus musculus, Mast cell, read-out: IC50 of suppression of mast cells (degranulation)) | degranulation of PCMC in response to MrgprB2 [3] | mast cell degranulation (mast cell activation) ([3]; kainic acid 0.1, 1.0, 10 and 100 uM) | mast cell degranulation (mast cell activation) ([3]; glutamate 6 mM)
1 | C[C@H](C[C@H](N)C(=O)O)C(=O)O [SYM2081, (2S,4R)-4-methylglutamic acid] | effective to reduce mast cell degranulation; also recorded: suppressed; also recorded: significant reduction in edema | effective to reduce mast cell degranulation; also recorded: significant reduction in edema | reduced inflammation | decreased | reduced percentage of degranulated mast cells | attenuated; also recorded: reduced ear swelling | at least 0.1 nM | 2.27 nM | suppressed |  | 
2 | C=C(C)[C@H]1CN[C@H](C(=O)O)[C@H]1CC(=O)O [kainic acid] |  |  |  |  |  |  |  |  | suppressed | suppress mast cell activation | 
3 | N[C@@H](CCC(=O)O)C(=O)O [glutamate] |  |  |  |  |  |  |  |  | suppressed |  | suppress mast cell activation
